Patent US20140011930A1, “Bio-Renewable Carboxylic Acid Esters and Mixtures Thereof Useful as Plasticizers” (TEKNOR APEX COMPANY, priority 2012, published 2014)

What was measured:
Type in all cases: physicochemical
[1] = Oven Stability (210° C.) (ASTM D-1203)
[2] = Dynamic Heat Stability (ASTM D-2538)
[3] = % Volatile Loss (ASTM D-1203)
[4] = Brittle Point (ASTM D-746)
[5] = Gamma irradiation stability (yellowness index YI)
Source text: Additional advantages of the compounds of the invention are their low cytotoxicity and resistance to gamma radiation especially when compared to the industry standard of di-2-ethylhexyl phthalate (DEHP). Gamma radiation stability is important since it allows for the convenient sterilization of articles prepared from PVC compound. The key performance standard is non-yellowing of the PVC compound after exposure to gamma radiation. An example of the improvement in gamma stability is shown below.

[6] = Specific Gravity of PVC compounds (ASTM D-792)
[7] = Tensile, 100% modulus, elongation of PVC compounds (ASTM D-638); parameters: 100% Modulus: unit not given here
[8] = Hardness (Shore) of PVC compounds (ASTM D-2240)
[9] = Loop Spew compatibility test (ASTM D-3291)
Procedure: This plasticizer was evaluated in the same formulations as test compounds 1, 2, 3 along with DEHP and Example 1.
PVC compounds were prepared with the plasticizers described in Example 1 and Example 2, and a commercial sample of DEHP, containing standard heat stabilizers, antioxidant and a lubricant. The compounds were evaluated in standard laboratory tests according the following ASTM methods: […]

[10] = PVC Test Compound 59-67 A Gauge
[11] = PVC Test Compound 59-67 A Gauge, DEHP vs Example 1/ESO series
[12] = PVC Test Compound 80-85 C Gauge
[13] = PVC Test Compound 80-85 C Gauge, DEHP vs Example 1/ESO series
[14] = PVC Test Compound 81-85 A Gauge
[15] = Gamma Radiation = 35 kGys (3.5 Mrads)
[16] = Gamma Radiation = 35 kGys (3.5 Mrads), oven aging 48 hr. at 50° C.
[17] = PVC Test Compound-Gamma Irradiation Stability-A

CCCCC(CC)COC(=O)c1ccccc1C(=O)OCC(CC)CCCC (stereo not shown) [DEHP, di-(2-ethylhexyl) phthalate]
Oven Stability (210° C.) Decomposition Failure [1, 10]: 50 min | Oven Stability (210° C.) Initial Color [1, 10]: Clear | Oven Stability (210° C.) Initial Color Failure [1, 10]: 15 min | Oven Stability (210° C.) Decomposition Failure [1, 11]: 60 min | Oven Stability (210° C.) Initial Color [1, 11]: Clear | Oven Stability (210° C.) Initial Color Failure [1, 11]: 15 min | Oven Stability (210° C.) Decomposition Failure [1, 12]: 50 min | Oven Stability (210° C.) Initial Color [1, 12]: Clear | Oven Stability (210° C.) Initial Color Failure [1, 12]: 15 min | Oven Stability (210° C.) Decomposition Failure [1, 13]: 50 min | Oven Stability (210° C.) Initial Color [1, 13]: Clear | Oven Stability (210° C.) Initial Color Failure [1, 13]: 10 min | Oven Stability (210° C.) Decomposition Failure [1, 14]: 50 min | Oven Stability (210° C.) Initial Color [1, 14]: Clear | Oven Stability (210° C.) Initial Color Failure [1, 14]: 15 min | Dynamic Heat Stability [2, 10]: 72 min | Dynamic Heat Stability [2, 11]: 54 | Dynamic Heat Stability [2, 12]: 19 min | Dynamic Heat Stability [2, 13]: 7 min | Dynamic Heat Stability [2, 14]: 40 min | % Volatile Loss [3, 10]: 3.54% | % Volatile Loss [3, 11]: 4.58% | % Volatile Loss [3, 12]: 1.56% | % Volatile Loss [3, 13]: 1.67% | % Volatile Loss [3, 14]: 2.73% | Brittle Point ° C. [4, 10]: −48.5 °C | Brittle Point ° C. [4, 11]: −50.5 °C | Brittle Point ° C. [4, 12]: −17.0 °C | Brittle Point ° C. [4, 13]: −22 °C | Brittle Point ° C. [4, 14]: −34.5 °C | Absolute YI After 35 kGys Gamma [5, 15]: 12.24 | Change in YI from Original After 35 kGys Gamma [5, 15]: 5.46 | Absolute YI After 35 kGys Gamma and Oven Aging (48 hr. at 50° C.) [5, 16]: 17.58 | Change in YI from Original After 35 kGys Gamma and Oven Aging (48 hr. at 50° C.) [5, 16]: 10.80 | Absolute YI Original ([5]; before irradiation): 6.78 | Specific Gravity [6, 10]: 1.16 | Specific Gravity [6, 11]: 1.16 | Specific Gravity [6, 12]: 1.28 | Specific Gravity [6, 13]: 1.28 | Specific Gravity [6, 14]: 1.23 | Specific Gravity [6, 17]: 1.24 | 100% Modulus [7, 10]: 554 | % Elongation [7, 10]: 439% | Tensile (psi) [7, 10]: 1559 psi | 100% Modulus [7, 11]: 518 | % Elongation [7, 11]: 451% | Tensile (psi) [7, 11]: 1564 psi | 100% Modulus [7, 12]: 3440 | % Elongation [7, 12]: 281% | Tensile (psi) [7, 12]: 3840 psi | 100% Modulus [7, 13]: 3617 | % Elongation [7, 13]: 282% | Tensile (psi) [7, 13]: 4083 psi | 100% Modulus [7, 14]: 1490 | % Elongation [7, 14]: 380% | Tensile (psi) [7, 14]: 2875 psi | Hardness Shore A (15 sec delay) [8, 10]: 60 | Hardness Shore A (instant) [8, 10]: 68 | Hardness Shore A (15 sec delay) [8, 11]: 56 | Hardness Shore A (instant) [8, 11]: 60 | Hardness Shore C (10 sec delay) [8, 12]: 85 | Hardness Shore C (instant) [8, 12]: 93 | Hardness Shore C (10 sec delay) [8, 13]: 85 | Hardness Shore C (instant) [8, 13]: 90 | Hardness Shore C (10 sec delay) [8, 14]: 83 | Hardness Shore C (instant) [8, 14]: 90 | Hardness Shore A (15 sec delay) [8, 17]: 86 | Hardness Shore A (instant) [8, 17]: 91 | Loop Spew [9, 10]: None | Loop Spew [9, 11]: None | Loop Spew [9, 12]: None | Loop Spew [9, 13]: None | Loop Spew [9, 14]: None
